US20120035247A1, “RNA Interference Mediated Inhibition of Signal Transducer and Activator of Transcription 6 (STAT6) Gene Expression Using Short Interfering Nucleic Acid (siNA)” (Merck Sharp & Dohme Corp., priority 2009, published 2012)
[invAb] = inverted abasic unit; m = 2'-O-methyl; r = 2'-OH (RNA); f = 2'-fluoro

Columns and labels:
STAT6 mRNA [1] = experiment: STAT6 siNA screen and dose response in human A549 cells, STAT6 mRNA by quantitative RT-PCR (Taqman); assay type: cell-based; details: human A549 cells, 10 nM siNA, 24 hrs, normalized to GAPDH and non-targeting control, mean ± S.D., n = 3
Protocol: A549 (human; ATCC cat# CCL-185): Cells were cultured at 37° C. in the presence of 5% CO2 and grown in Ham's F12K medium with 2 mM L-glutamine adjusted to contain 1.5 g/L sodium bicarbonate and supplemented with fetal bovine serum at a final concentration of 10%, 100 μg/mL of streptomycin, and 100 U/mL penicillin.
(§1) Cells were plated in all wells of a tissue-culture treated, 96-well plate at a final count of 5000 cells/well in […], of the appropriate culture media. The cells were cultured for 24 hours after plating at 37° C. in the presence of 5% CO2.
(§2) After 24 hours, complexes containing siNA and RNAiMax were created as follows: A solution of RNAiMax diluted 33-fold in OPTI-MEM was prepared. In parallel, solutions of the siNAs for testing were prepared to a final concentration of 120 nM in OPTI-MEM. After incubation of RNAiMax/OPTI-MEM solution at room temperature for 5 min, an equal volume of the siNA solution and the RNAiMax solution were added together for each of the siNAs.
(§3) This solution was incubated at room temperature for 20 minutes. After incubation, 20 uL of the solution was added to each of the relevant wells. The final concentration of siNA in each well was 10 nM and the final volume of RNAiMax in each well was 0.3u1.
(§4) The time of incubation with the RNAiMax-siNA complexes was 24 hours and there was no change in media between transfection and harvesting, unless otherwise indicated.
(§5) RNA was extracted from a 96-well plate using the TaqMan® Gene Expression Cells-to-CT™ Kit (Cat#4399002) with a modified protocol. Briefly, a 60 uL (1 plate) or 110 uL (2 plates) of the Lysis Solution with DNase I was dispensed into each well of the Lysis Buffer Plate (twin.tec full skirt plate). The lysis buffer and stop plates were stored at 4° C. until the cells were washed.
(§6) The plate was spun at 1100 rpm for 5 minutes. The culture medium was aspirated and discarded from the wells of the culture plate. The lysis was performed automatically using a BioMek FX instrument and method. After the Biomek method was completed, the lysis plate was incubated for 2 min. at room temperature. The lysis plate can be stored for 2 hours at 4° C., or at −20° C. or −80° C. for two months.
(§7) Each well of the reverse transcription plate required 10 uL of 2× reverse transcriptase Buffer, luL of 20× reverse transcription enzyme and 2 uL of nuclease-free water. The reverse transcription master mix was prepared by mixing 2× reverse transcription buffer, 20× reverse transcription enzyme mix, and nuclease-free water. 13 uL of the reverse transcription master mix was dispensed into each well of the reverse transcription plate (semi-skirted). A separate reverse transcription plate was prepared for each cell plate. The plate was loaded onto a Biomek NX or Biomek FX Dual-96 and the Biomek method was run. The program is programmed to automatically added 7 uL of lysate from the cell lysis procedure described above into each well of the reverse transcription plate. The plate is sealed and spun on a centrifuge (1000 rpm for 30 seconds) to settle the contents to the bottom of the reverse transcription plate. The plate is placed in a thermocycler at 37° C. for 60 min, 95° C. for 5 min, and 4° C. until the plate is removed from the thermocycler. Upon removal, if not used immediately, the plate was frozen at −20° C.
(§8) A series of probes and primers were used to detect the various mRNA transcripts of the genes of 13-Actin (human cell line only), and of STATE and GAPDH in mouse and human cell lines. All Taqman probes and primers for the experiments here-in described were supplied as pre-validated sets by Applied Biosystems, Inc. (see Table 2).
The assays were performed on an ABI 7900 instrument, according to the manufacturer's instructions. A TaqMan Gene Expression Master Mix (provided in the Cells-to-CTT™, Applied Biosystems, Cat #4399002) was used. The PCR reactions were carried out at 50° C. for 2 min, 95° C. for 20 min followed by 40 cycles at 95° C. for 15 secs and 60° C. for 1 min. […]

STAT6 mRNA [2] = experiment: STAT6 siNA screen in mouse NIH 3T3 cells, STAT6 mRNA by quantitative RT-PCR (Taqman); assay type: cell-based; details: mouse NIH3T3 cells, 10 nM siNA, 24 hrs, normalized to GAPDH and non-targeting control, n = 2
Protocol: NIH 3T3 (mouse; ATCC cat# CRL-1658): Cells were cultured at 37° C. in the presence of 5% CO2 and grown in Dulbecco's modified Eagle's medium (DMEM) with 4 mM L-glutamine adjusted to contain 1.5 g/L sodium bicarbonate and 4.5 g/L glucose and supplemented with fetal bovine serum at a final concentration of 10%, 100 μg/mL of streptomycin, and 100 U/mL penicillin.
as §1, §2, §3, §4, §5, §6, §7, §8
The assays were performed on an ABI 7900 instrument, according to the manufacturer's instructions. A TaqMan Gene Expression Master Mix (provided in the Cells-to-CTT™, Applied Biosystems, Cat #4399002) was used. […]

Substance | % KD STAT6 (STAT6 mRNA [1]) | % KD STAT6 (STAT6 mRNA [2])
29989-DC: STAT6 siNA duplex; sense SEQ ID NO: 42, antisense SEQ ID NO: 43; target GAAGGCUUCUCCGCCCAUU, site 3187 (sense GAAGGCUUCUCCGCCCAUUTT; antisense AAUGGGCGGAGAAGCCUUCUU; sense: DNA at AGT, 2'-fluoro at CU, [invAb] at 5' end, 3' end, backbone not given here; antisense: sugars from the 5' end rrrmmmfmmmmmmmfffffmm, backbone not given here) [STAT6 siNA duplex; target GAAGGCUUCUCCGCCCAUU, site 3187] | 29.1 ± 3.8% | −18.3 ± 7.1%
30026-DC: STAT6 siNA duplex; sense SEQ ID NO: 116, antisense SEQ ID NO: 117; target GCAGUGGUUUGAUGGUGUC, site 1816 (sense GCAGUGGUUUGAUGGUGUCTT; antisense GACACCAUCAAACCACUGCUU; sense: DNA at AGT, 2'-fluoro at CU, [invAb] at 5' end, 3' end, backbone not given here; antisense: sugars from the 5' end rrrmffmffmmmffmffmfmm, backbone not given here) [STAT6 siNA duplex; target GCAGUGGUUUGAUGGUGUC, site 1816] | 58.4 ± 8.1% | 59.8 ± 1.1%
30028-DC: STAT6 siNA duplex; sense SEQ ID NO: 120, antisense SEQ ID NO: 121; target CUGCCAAAGACCUGUCCAU, site 2049 (sense CUGCCAAAGACCUGUCCAUTT; antisense AUGGACAGGUCUUUGGCAGUU; sense: DNA at AGT, 2'-fluoro at CU, [invAb] at 5' end, 3' end, backbone not given here; antisense: sugars from the 5' end rrrmmfmmmfffffmmfmmmm, backbone not given here) [STAT6 siNA duplex; target CU…UGUCCAU, site 2049] | 29.5 ± 6.4% | 31.1 ± 4.3%
29993-DC: STAT6 siNA duplex; sense SEQ ID NO: 50, antisense SEQ ID NO: 51; target CCCUUGAGAGCAUAUAUCA, site 519 (sense CCCUUGAGAGCAUAUAUCATT; antisense UGAUAUAUGCUCUCAAGGGUU; sense: DNA at AGT, 2'-fluoro at CU, [invAb] at 5' end, 3' end, backbone not given here; antisense: sugars from the 5' end rrrfmfmfmffmfmmmmmmmm, backbone not given here) [STAT6 siNA duplex; target CCCUUGAGAGCAUAUAUCA, site 519] | 24.4 ± 8.1% | −23.4 ± 1.6%
30022-DC: STAT6 siNA duplex; sense SEQ ID NO: 108, antisense SEQ ID NO: 109; target CCAAGACCCGGGCAUCGCU, site 1037 (sense CCAAGACCCGGGCAUCGCUTT; antisense AGCGAUGCCCGGGUCUUGGUU; sense: DNA at AGT, 2'-fluoro at CU, [invAb] at 5' end, 3' end, backbone not given here; antisense: chemistry not given here; in the key) [STAT6 siNA duplex; target …UCGCU, site 1037] | 56.1 ± 8.3% | 51.5 ± 0%
30018-DC: STAT6 siNA duplex; sense SEQ ID NO: 100, antisense SEQ ID NO: 101; target CAGAAGAUCUUCAACGACA, site 1720 (sense CAGAAGAUCUUCAACGACATT; antisense UGUCGUUGAAGAUCUUCUGUU; sense: DNA at AGT, 2'-fluoro at CU, [invAb] at 5' end, 3' end, backbone not given here; antisense: sugars from the 5' end rrrfmffmmmmmffffffmmm, backbone not given here) [STAT6 siNA duplex; target CAGAAGAUCUUCAACGACA, site 1720] | 66.8 ± 3.2% | 64.8 ± 0.7%
